Columns and labels:
Assay type in all cases: in vivo
[1] = system: Diabrotica balteata (Corn root worm); assay: Diabrotica balteata (Corn root worm), maize sprouts sprayed, L2 larvae mortality; settings: 96 h, application rate of 200 ppm, L2 larvae on maize sprouts, assessed 4 days after infestation, read-out: control (mortality)
Experimental: Diabrotica balteata (Corn root worm):
Maize sprouts placed onto an agar layer in 24-well microtiter plates were treated with aqueous test solutions prepared from 10,000 ppm DMSO stock solutions by spraying. After drying, the plates were infested with L2 larvae (6 to 10 per well). The samples were assessed for mortality 4 days after infestation.

[2] = system: Plutella xylostella (Diamond back moth); assay: Plutella xylostella (Diamond back moth): Feeding/contact activity; settings: 120 h, application rate of 200 ppm, L2 larvae on artificial diet, assessed 5 days after infestation, read-out: control (mortality)
Experimental: Plutella xylostella (Diamond back moth): Feeding/contact activity
24-well microtiter plates with artificial diet were treated with aqueous test solutions prepared from 10,000 ppm DMSO stock solutions by pipetting. After drying, the plates were infested with L2 larvae (10 to 15 per well). The samples were assessed for mortality 5 days after infestation.

[3] = system: Spodoptera littoralis (Egyptian cotton leaf worm); assay: Spodoptera littoralis (Egyptian cotton leaf worm): Feeding/contact activity; settings: foliar, 72 h, application rate of 200 ppm, L1 larvae on cotton leaf discs, assessed 3 days after infestation, read-out: control (mortality)
Experimental: Spodoptera littoralis (Egyptian cotton leaf worm): Feeding/contact activity Cotton leaf discs were placed onto agar in 24-well microtiter plates and sprayed with aqueous test solutions prepared from 10,000 ppm DMSO stock solutions. After drying the leaf discs were infested with five L1 larvae. The samples were assessed for mortality 3 days after infestation.

[4] = system: Tetranychus urticae (Two-spotted spider mite); assay: Tetranychus urticae (Two-spotted spider mite): Feeding/contact activity; settings: foliar, 192 h, application rate of 200 ppm, mite population of mixed ages (mobile stages) on bean leaf discs, assessed 8 days after infestation, read-out: control (mortality)
Experimental: Tetranychus urticae (Two-spotted spider mite): Feeding/contact activity
Bean leaf discs on agar in 24-well microtiter plates were sprayed with aqueous test solutions prepared from 10,000 ppm DMSO stock solutions. After drying the leaf discs were infested with a mite population of mixed ages. The samples were assessed for mortality on mixed population (mobile stages) 8 days after infestation.

[5] = system: Thrips tabaci (Onion Thrips); assay: Thrips tabaci (Onion Thrips): Feeding/Contact activity; settings: foliar, 144 h, application rate of 200 ppm, thrips population of mixed ages on sunflower leaf discs, assessed 6 days after infestation, read-out: control (mortality)
Experimental: Thrips tabaci (Onion Thrips): Feeding/Contact activity
Sunflower leaf discs were placed on agar in 24-well microtiter plates and sprayed with aqueous test solutions prepared from 10,000 ppm DMSO stock solutions. After drying the leaf discs were infested with a thrips population of mixed ages. The samples were assessed for mortality 6 days after infestation.

[6] = system: Euschistus heros (Neotropical Brown Stink Bug); assay: Euschistus heros (Neotropical Brown Stink Bug): Feeding/contact activity; settings: 120 h, application rate of 200 ppm, N2 nymphs on soybean leaves, assessed 5 days after infestation, read-out: control (mortality)
Experimental: Euschistus heros (Neotropical Brown Stink Bug): Feeding/contact activity Soybean leaves on agar in 24-well microtiter plates were sprayed with aqueous test solutions prepared from 10,000 ppm DMSO stock solutions. After drying the leaves were infested with N2 nymphs. The samples were assessed for mortality 5 days after infestation.

[7] = system: Myzus persicae (Green peach aphid); assay: Myzus persicae (Green peach aphid): Feeding/Contact activity; settings: foliar, 144 h, application rate of 200 ppm, aphid population of mixed ages on sunflower leaf discs, assessed 6 days after infestation, read-out: control (mortality)
Experimental: Myzus persicae (Green peach aphid): Feeding/Contact activity Sunflower leaf discs were placed onto agar in a 24-well microtiter plate and sprayed with aqueous test solutions prepared from 10,000 ppm DMSO stock solutions. After drying, the leaf discs were infested with an aphid population of mixed ages. The samples were assessed for mortality 6 days after infestation.

Measured: mortality at 200 ppm

Cn1c(C(F)(c2cc(F)cc(F)c2)C(F)(F)F)cc(Br)c1-n1cc(-c2ccc(Cl)c(C(=O)NC3(C#N)CC3)c2)cn1 (stereo not drawn) [Compound 17, 5-[1-[3-bromo-5-[1-(3,5-difluorophenyl)-1,2,2,2-tetrafluoro-ethyl]-1-methyl-pyrrol-2-yl]pyrazol-4-yl]-2-chloro-N-(1-cyanocyclopropyl)benzamide]
not listed: [6] | [7]
≥ 80%: all other assays above

COCn1c(C(F)(C(F)(F)F)C(F)(F)F)cc(Br)c1-n1cc(-c2ccc(Cl)c(C(=O)NC3(C#N)CC3)c2)cn1 [Compound 14, 5-[1-[3-bromo-1-(methoxymethyl)-5-[1,2,2,2-tetrafluoro-1-(trifluoromethyl)ethyl]pyrrol-2-yl]pyrazol-4-yl]-2-chloro-N-(1-cyanocyclopropyl)benzamide]
not listed: [5]
≥ 80%: all other assays above

Cn1c(C(F)(c2cc(Cl)cc(Cl)c2)C(F)(F)F)cc(Cl)c1-n1cc(-c2ccc(Cl)c(C(=O)NC3(C#N)CC3)c2)cn1 (stereo not drawn) [Compound 30, 2-chloro-5-[1-[3-chloro-5-[1-(3,5-dichlorophenyl)-1,2,2,2-tetrafluoro-ethyl]-1-methyl-pyrrol-2-yl]pyrazol-4-yl]-N-(1-cyanocyclopropyl)benzamide]
not listed: [4] | [7]
≥ 80%: all other assays above

Cn1c(C(F)(C(F)(F)F)C(F)(F)F)cc(C(F)(F)F)c1-n1cc(-c2ccc(Cl)c(C(=O)NC3(C#N)CC3)c2)cn1 [Compound 8, 2-chloro-N-(1-cyanocyclopropyl)-5-[1-[1-methyl-5-[1,2,2,2-tetrafluoro-1-(trifluoromethyl)ethyl]-3-(trifluoromethyl)pyrrol-2-yl]pyrazol-4-yl]benzamide]
not listed: [4] | [7]
≥ 80%: all other assays above

CN(C(=O)c1cc(-c2cnn(-c3c(Br)cc(C(F)(C(F)(F)F)C(F)(F)F)n3C)c2)ccc1Cl)C1CC1 [Compound 4, 5-[1-[3-bromo-1-methyl-5-[1,2,2,2-tetrafluoro-1-(trifluoromethyl)ethyl]pyrrol-2-yl]pyrazol-4-yl]-2-chloro-N-cyclopropyl-N-methyl-benzamide]
not listed: [5]
≥ 80%: all other assays above

Cn1c(C(F)(C(F)(F)F)C(F)(F)F)cc(C(N)=S)c1-n1cc(-c2ccc(Cl)c(C(=O)NC3(C#N)CC3)c2)cn1 [Compound 23, 5-[1-[3-carbamothioyl-1-methyl-5-[1,2,2,2-tetrafluoro-1-(trifluoromethyl)ethyl]pyrrol-2-yl]pyrazol-4-yl]-2-chloro-N-(1-cyanocyclopropyl)benzamide]
not listed: [5]
≥ 80%: all other assays above

CCN(C(=O)c1cc(-c2cnn(-c3c(Br)cc(C(F)(C(F)(F)F)C(F)(F)F)n3C)c2)ccc1Cl)C1CC1 [Compound 22, 5-[1-[3-bromo-1-methyl-5-[1,2,2,2-tetrafluoro-1-(trifluoromethyl)ethyl]pyrrol-2-yl]pyrazol-4-yl]-2-chloro-N-cyclopropyl-N-ethyl-benzamide]
not listed: [5]
≥ 80%: all other assays above

From US11459318B2, “Pesticidally active pyrrole derivatives” (Syngenta Participations AG, priority 2017, dated 2022)
